From ChEMBL document CHEMBL1201862, “PubChem BioAssay data set” (2004)
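Results reflect a 48-hour exposure of cells in 96-well plates to compound at five concentrations. At the GI50, growth is halved.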 Activity calls are given as the source filed them. No stated cut-off is given here; in the data, active = GI50 up to about 1.1 µM and inactive = higher.

Experiments:
Assay in all cases: inhibition of tumour cell growth, NCI panel, 48 h
PC-3 = system: PC-3
M14 = system: M14
NCI-H522 = system: NCI-H522
Hs-578T = system: Hs-578T
NCI-H23 = system: NCI-H23
NCI-H460 = system: NCI-H460
SK-MEL-5 = system: SK-MEL-5
CAKI-1 = system: CAKI-1
SK-MEL-2 = system: SK-MEL-2
UO-31 = system: UO-31
MOLT-4 = system: MOLT-4
EKVX = system: EKVX
HOP-92 = system: HOP-92
A549 = system: A549
RPMI-8226 = system: RPMI-8226
HCT-116 = system: HCT-116
Malme-3M = system: Malme-3M
K562 = system: K562
HCC 2998 = system: HCC 2998
IGROV-1 = system: IGROV-1
KM12 = system: KM12
HT-29 = system: HT-29
HCT-15 = system: HCT-15
LOX IMVI = system: LOX IMVI
COLO 205 = system: COLO 205
UACC-62 = system: UACC-62
OVCAR-5 = system: OVCAR-5
SNB-75 = system: SNB-75
U-251 = system: U-251
SF-268 = system: SF-268
SK-MEL-28 = system: SK-MEL-28
SK-OV-3 = system: SK-OV-3
ACHN = system: ACHN
SF-295 = system: SF-295
OVCAR-4 = system: OVCAR-4
DU-145 = system: DU-145
786-0 = system: 786-0
SN12C = system: SN12C
MDA-MB-231 = system: MDA-MB-231
SW-620 = system: SW-620
CCRF-CEM = system: CCRF-CEM
MCF7 = system: MCF7
TK-10 = system: TK-10
UACC-257 = system: UACC-257
OVCAR-8 = system: OVCAR-8
SR = system: SR
RXF 393 = system: RXF 393
MDA-MB-435 = system: MDA-MB-435
NCI/ADR-RES = system: NCI/ADR-RES
SNB-19 = system: SNB-19

With `C=C1C(=O)O[C@H]2C1C[C@@H](O)[C@@]1(C)OC1CC[C@@]1(C)O[C@H]21` (stereo not given in full) the GI50 (PC-3) was 27.2 µM (inactive), the GI50 (M14) was 16.3 µM (inactive) and the GI50 (NCI-H522) was 5.62 µM (inactive). The GI50 (Hs-578T) was 28.6 µM (inactive), the GI50 (NCI-H23) was 17 µM (inactive) and the GI50 (NCI-H460) was 57.9 µM (inactive). For the same compound, the GI50 (SK-MEL-5) was 16.1 µM (inactive), the GI50 (CAKI-1) was 16.7 µM (inactive) and the GI50 (SK-MEL-2) was 17.6 µM (inactive). For the same compound, the GI50 (UO-31) was 17 µM (inactive), the GI50 (MOLT-4) was 5.94 µM (inactive) and the GI50 (EKVX) was 15.8 µM (inactive). For the same compound, the GI50 (HOP-92) was 17.2 µM (inactive), the GI50 (A549) was > 100 µM (inactive) and the GI50 (RPMI-8226) was 8.95 µM (inactive). For the same compound, the GI50 (HCT-116) was 17.7 µM (inactive), the GI50 (Malme-3M) was 11.7 µM (inactive) and the GI50 (K562) was 9.33 µM (inactive). The GI50 (HCC 2998) was 15.2 µM (inactive), the GI50 (IGROV-1) was > 10 µM (inactive) and the GI50 (KM12) was 20.6 µM (inactive). For the same compound, the GI50 (HT-29) was 32.8 µM (inactive), the GI50 (HCT-15) was 14.9 µM and the GI50 (LOX IMVI) was 13.2 µM (inactive). The GI50 (COLO 205) was 11.6 µM (inactive), the GI50 (UACC-62) was 15.3 µM (inactive) and the GI50 (OVCAR-5) was 28.7 µM (inactive). The GI50 (SNB-75) was 74.1 µM (inactive), the GI50 (U-251) was > 100 µM (inactive) and the GI50 (SF-268) was 48.1 µM (inactive). For the same compound, the GI50 (SK-MEL-28) was 21.1 µM (inactive), the GI50 (SK-OV-3) was > 100 µM (inactive) and the GI50 (ACHN) was 13.7 µM (inactive). The GI50 (SF-295) was 99.1 µM (inactive), the GI50 (OVCAR-4) was 13.9 µM (inactive) and the GI50 (DU-145) was 36.6 µM (inactive). For the same compound, the GI50 (786-0) was 22.1 µM (inactive), the GI50 (SN12C) was 20.1 µM (inactive) and the GI50 (MDA-MB-231) was 19.1 µM (inactive). The GI50 (SW-620) was 13.3 µM (inactive), the GI50 (CCRF-CEM) was 5.15 µM (inactive) and the GI50 (MCF7) was 14.8 µM (inactive). For the same compound, the GI50 (TK-10) was 17.8 µM (inactive), the GI50 (UACC-257) was 19.5 µM (inactive) and the GI50 (OVCAR-8) was 34.7 µM (inactive). The GI50 (SR) was 14.1 µM (inactive), the GI50 (RXF 393) was 17.9 µM (inactive) and the GI50 (MDA-MB-435) was 21 µM (inactive). The GI50 (NCI/ADR-RES) was 20.7 µM (inactive) and the GI50 (SNB-19) was > 100 µM (inactive).
